# Biological target: T1, FLT3-D835Y (Homo sapiens, UniProt P36888, D835Y)
# T1 construct: purchased Invitrogen PV3967
# T1 sequence (P36888 27-993 D835Y): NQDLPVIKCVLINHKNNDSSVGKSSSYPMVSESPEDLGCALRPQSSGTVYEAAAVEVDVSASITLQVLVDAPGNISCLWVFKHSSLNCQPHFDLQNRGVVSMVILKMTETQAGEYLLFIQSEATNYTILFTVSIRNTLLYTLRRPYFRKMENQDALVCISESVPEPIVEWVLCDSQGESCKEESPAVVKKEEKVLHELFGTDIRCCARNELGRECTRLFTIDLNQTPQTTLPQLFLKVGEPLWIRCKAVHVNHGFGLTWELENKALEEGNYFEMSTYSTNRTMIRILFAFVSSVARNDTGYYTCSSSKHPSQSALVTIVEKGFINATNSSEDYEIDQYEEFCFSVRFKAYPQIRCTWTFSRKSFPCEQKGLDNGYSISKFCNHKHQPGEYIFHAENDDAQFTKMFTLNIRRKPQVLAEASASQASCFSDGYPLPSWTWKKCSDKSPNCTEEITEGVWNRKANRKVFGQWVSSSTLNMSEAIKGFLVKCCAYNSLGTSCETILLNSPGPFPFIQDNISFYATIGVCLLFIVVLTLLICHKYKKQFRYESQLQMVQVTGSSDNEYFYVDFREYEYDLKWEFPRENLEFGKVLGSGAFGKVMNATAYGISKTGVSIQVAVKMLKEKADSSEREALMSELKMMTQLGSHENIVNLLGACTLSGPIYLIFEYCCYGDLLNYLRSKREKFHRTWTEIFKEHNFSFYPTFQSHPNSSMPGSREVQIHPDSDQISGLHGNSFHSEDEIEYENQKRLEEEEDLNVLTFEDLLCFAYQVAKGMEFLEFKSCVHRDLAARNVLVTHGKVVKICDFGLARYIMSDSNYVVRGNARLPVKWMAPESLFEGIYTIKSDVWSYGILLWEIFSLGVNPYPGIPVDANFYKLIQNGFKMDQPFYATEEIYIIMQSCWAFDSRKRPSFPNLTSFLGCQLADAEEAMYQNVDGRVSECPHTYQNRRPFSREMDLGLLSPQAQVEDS
# Assay: FLT3-D835Y biochemical kinase assay (AlphaScreen)
# How it was run: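 Recombinant FLT3 mutant kinases phosphorylate biotin-poly(Glu4-Tyr) peptide (30 nM) at 10 μM ATP for D835Y or 100 μM for ITD. Phosphorylation detected by AlphaScreen: streptavidin donor beads (20 min) then anti-phosphotyrosine PY20 acceptor beads (60 min, RT), signal at 580 nm; inhibition lowers signal.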
row,Structure (SMILES),IC50 [µM]
1,"CC(C)(C)n1cnc2ccc(-c3c[nH]c4ncc(-c5ccnc(N6CCOCC6)c5)nc34)cc21 [P-228, 4-[4-[7-(3-tert-butylbenzimidazol-5-yl)-5H-pyrrolo[2,3-b]pyrazin-2-yl]-2-pyridyl]morpholine]",0.0001 to 1
2,"FC(F)n1cc(-c2cnc3[nH]cc(-c4ccc5ncn(C6CCCNC6)c5c4)c3n2)cn1 (stereo not drawn) [P-257, 2-[1-(difluoromethyl)pyrazol-4-yl]-7-[3-(3-piperidyl)benzimidazol-5-yl]-5H-pyrrolo[2,3-b]pyrazine]",0.0001 to 1
3,"COc1cc(-c2cnc3[nH]nc(-c4ccc5ncn(C(C)(C)C)c5c4)c3c2)ccn1 [P-272, 3-(1-(tert-butyl)-1H-benzo[d]imidazol-6-yl)-5-(2-methoxypyridin-4-yl)-1H-pyrazolo[3,4-b]pyridine]",0.0001 to 1
4,"CC(C)(C)n1cnc2ccc(-c3c[nH]c4ncc(-c5cccc(N6CCOCC6)c5)nc34)cc21 [P-226, 4-[3-[7-(3-tert-butylbenzimidazol-5-yl)-5H-pyrrolo[2,3-b]pyrazin-2-yl]phenyl]morpholine]",0.0001 to 1
5,"COc1ncc(-c2cnc3[nH]cc(-c4ccc5ncn(C(C)(C)C)c5c4)c3c2)cn1 [P-265, 1-(tert-butyl)-6-(5-(2-methoxypyrimidin-5-yl)-1H-pyrrolo[2,3-b]pyridin-3-yl)-1H-benzo[d]imidazole]",0.0001 to 1
6,"CC(C)n1cnc2ccc(-c3c[nH]c4ncc(-c5cnn(CC(F)(F)F)c5)cc34)cc21 [P-268, 1-isopropyl-6-[5-[1-(2,2,2-trifluoroethyl)pyrazol-4-yl]-1H-pyrrolo[2,3-b]pyridin-3-yl]benzimidazole]",0.0001 to 1
7,"CC(C)(C)n1cnc2ccc(-c3c[nH]c4ncc(-c5ccc(N6CCOCC6)cc5)nc34)cc21 [P-100, 4-[4-[7-(3-tert-butylbenzimidazol-5-yl)-5H-pyrrolo[2,3-b]pyrazin-2-yl]phenyl]morpholine]",0.0001 to 1
8,"CC(C)n1cnc2ccc(-c3c[nH]c4ncc(-c5cnn(C(F)F)c5)cc34)cc21 [P-267, 5-[1-(difluoromethyl)pyrazol-4-yl]-3-(3-isopropylbenzimidazol-5-yl)-1H-pyrrolo[2,3-b]pyridine]",0.0001 to 1
9,"COc1cc(-c2cnc3[nH]cc(-c4ccc5ncn(C6CCCNC6)c5c4)c3n2)cc(OC)n1 (stereo not drawn) [P-195, 2-(2,6-dimethoxy-4-pyridyl)-7-[3-(3-piperidyl)benzimidazol-5-yl]-5H-pyrrolo[2,3-b]pyrazine]",0.0001 to 1
10,"CC(C)S(=O)(=O)Nc1cccc(-c2cnc3[nH]cc(-c4ccc5ncn(C(C)(C)C)c5c4)c3n2)c1 [P-232, N-[3-[7-(3-tert-butylbenzimidazol-5-yl)-5H-pyrrolo[2,3-b]pyrazin-2-yl]phenyl]propane-2-sulfonamide]",0.0001 to 1
11,"COc1ncccc1C#Cc1cnc2[nH]cc(-c3ccc4ncn(C(C)(C)C)c4c3)c2n1 [P-250, 7-(3-tert-butylbenzimidazol-5-yl)-2-[2-(2-methoxy-3-pyridyl)ethynyl]-5H-pyrrolo[2,3-b]pyrazine]",0.0001 to 1
12,"COc1cc(-c2cnc3[nH]cc(-c4ccc5ncn(C(C)(C)CO)c5c4)c3n2)ccn1 [P-186, 2-[6-[2-(2-methoxy-4-pyridyl)-5H-pyrrolo[2,3-b]pyrazin-7-yl]benzimidazol-1-yl]-2-methyl-propan-1-ol]",0.0001 to 1

# Now from value to compound:
row,IC50 [µM],Structure (SMILES)
1,0.0001 to 1,"O=S1(=O)CCCCN1c1cccc(-c2cnc3[nH]cc(-c4ccc5ncn(C6CCCNC6)c5c4)c3n2)c1 (stereo not drawn) [P-253, 2-[3-[7-[3-(3-piperidyl)benzimidazol-5-yl]-5H-pyrrolo[2,3-b]pyrazin-2-yl]phenyl]thiazinane 1,1-dioxide]"
2,0.0001 to 1,"N#Cc1cccc(C#Cc2cnc3[nH]cc(-c4ccc5ncn(C6CCCNC6)c5c4)c3c2)c1 (stereo not drawn) [P-243, 3-[2-[3-[3-(3-piperidyl)benzimidazol-5-yl]-1H-pyrrolo[2,3-b]pyridin-5-yl]ethynyl]benzonitrile]"
3,0.0001 to 1,"CN(c1cccc(-c2cnc3[nH]cc(-c4ccc5ncn(C)c5c4)c3c2)c1)S(C)(=O)=O [P-120, N-methyl-N-[3-[3-(3-methylbenzimidazol-5-yl)-1H-pyrrolo[2,3-b]pyridin-5-yl]phenyl]methanesulfonamide]"
4,0.0001 to 1,"N#Cc1cc(-c2cnc3[nH]cc(-c4ccc5ncn(C6CCCNC6)c5c4)c3n2)ccc1F (stereo not drawn) [P-238, 2-fluoro-5-[7-[3-(3-piperidyl)benzimidazol-5-yl]-5H-pyrrolo[2,3-b]pyrazin-2-yl]benzonitrile]"
5,0.0001 to 1,"N#Cc1cc(-c2cnc3[nH]cc(-c4ccc5ncn(C6CCCNC6)c5c4)c3c2)ccc1F (stereo not drawn) [P-208, 2-fluoro-5-[3-[3-(3-piperidyl)benzimidazol-5-yl]-1H-pyrrolo[2,3-b]pyridin-5-yl]benzonitrile]"
6,0.0001 to 1,"CCCS(=O)(=O)Nc1cccc(-c2cnc3[nH]cc(-c4ccc5ncn(C(C)(C)C)c5c4)c3c2)c1 [P-216, N-[3-[3-(3-tert-butylbenzimidazol-5-yl)-1H-pyrrolo[2,3-b]pyridin-5-yl]phenyl]propane-1-sulfonamide]"
7,0.0001 to 1,"CCCS(=O)(=O)Nc1cccc(-c2cnc3[nH]cc(-c4ccc5ncn(C(C)(C)C)c5c4)c3n2)c1 [P-225, N-[3-[7-(3-tert-butylbenzimidazol-5-yl)-5H-pyrrolo[2,3-b]pyrazin-2-yl]phenyl]propane-1-sulfonamide]"
8,0.0001 to 1,"CCCS(=O)(=O)Nc1cccc(-c2cnc3[nH]cc(-c4ccc5ncn(C6CCCNC6)c5c4)c3c2)c1 (stereo not drawn) [P-217, N-[3-[3-[3-(3-piperidyl)benzimidazol-5-yl]-1H-pyrrolo[2,3-b]pyridin-5-yl]phenyl]propane-1-sulfonamide]"
9,0.0001 to 1,"COc1cc(C#Cc2cnc3[nH]cc(-c4ccc5ncn(C6CCCNC6)c5c4)c3c2)ccn1 (stereo not drawn) [P-241, 5-[2-(2-methoxy-4-pyridyl)ethynyl]-3-[3-(3-piperidyl)benzimidazol-5-yl]-1H-pyrrolo[2,3-b]pyridine]"
